From patent US7642261B2, “Use of 1-[4-(5-cyanoindol-3-yl)butyl]-4-(2-carbamoyl-benzofuran-5-yl)-piperazine and its physiologically acceptable salts” (Merck Patent GmbH, priority 2002, dated 2010)

Tests used:
Format in all cases: in vivo
[1] = Intradermal formalin test; settings: 10 mg/kg p.o.
Protocol: (§1) Rapid procedures to test pain-relieving properties of drugs are the abdominal constriction (writhing) test according to E. Siegmund et all., Proc. Soc. Exp. Biol. Med. 1957, 95: 729-731 and the intradermal formalin test according to S. Hunskaar et al., J. Neurosci. Meth. 1985, 14: 69-76. For example, 1-[4-(5-cyanoindol-3-y1)butyl]-4-(2-carbamoyl-benzofuran-5-yl)-piperazine hydrochloride at 30 mg/kg p.c. reduced abdominal contrictions by 82%, and 10 mg/kg p.o. reduced the formalin-induced pain response by 79%.

rats = test: Social Interaction Test (model for social phobia); settings: pairs of unfamiliar rats, oral dose of 10 mg/kg, 300 sec total time; vehicle 116 sec
Protocol: A model for social phobia is the Social Interaction Test according to S. File, J. R. G Hyde, J. Pharm. Pharmacol. 1977, 29: 735-738. Pairs of rats not familiar with each other are placed in an open test box brightly lit (aversive condition), and the number and duration of social contacts during a 5 min test session are recorded.
1-[4-(5-cyanoindol-3-yl)butyl]-4-(2-carbamoyl-benzofuran-5-yl)-piperazine or one of its physiologically acceptable salts, in particular 1-[4-(5-cyanoindol-3-yl)butyl]-4-(2-carbamoyl-benzofuran-5-yl)-piperazine hydrochloride, increase the time spent in social interaction. For example, for an oral dose of 10 mg/kg of 1-[4-(5-cyanoindol-3-yl)butyl]-4-(2-carbamoyl-benzofuran-5-yl)-piperazine hydrochloride the pairs of rats unfamiliar to each other spend 144 sec of the 300 sec of total time with social interaction compared to 116 sec for the vehicle treated pairs of rats.

[2] = Abdominal constriction (writhing) test; settings: 30 mg/kg p.c.
Protocol: as §1

mice = test: Marble Burying Test (model for OCSD including OCD); settings: 3 mg/kg, subcutaneous application
Protocol: A typical model for OCSD including OCD is the Marble Burying Test according to Y. Ichimaru, T. Egawa, A. Sawa, Jpn. J. Pharmacol. 1995, 68: 65-70.
The apparatus consists of an open cubic box with 25 clean glass marbles evenly spaced on sawdust. Individual mice are placed in the test box, and the number of glass marbles left uncovered after 20 minutes are counted. 1-[4-(5-cyanoindol-3-yl)butyl]-4-(2-carbamoyl-benzofuran-5-yl)-piperazine or one of its physiologically acceptable salts, in particular 1-[4-(5-cyanoindol-3-yl)butyl]-4-(2-carbamoyl-benzofuran-5-yl)-piperazine hydrochloride, following subcutaneous application inhibits mable burying in mice dose-dependently. For example, a dose of 3 mg/kg of 1-[4-(5-cyanoindol-3-yl)butyl]-4-(2-carbamoyl-benzofuran-5-yl)-piperazine hydrochloride nearly completely (92%) inhibits marble burying; equieffective doses of conventional serotonin reuptake inhibitors are e.g. 20 mg/kg for fluvoxamine or 17 mg/kg for fluoxetine and an equieffective dose of the 5-HT1A agonist ipsapirone is 10 mg/kg.

**Q.** With `Cl.N#Cc1ccc2[nH]cc(CCCCN3CCN(c4ccc5oc(C(N)=O)cc5c4)CC3)c2c1` [1-[4-(5-cyanoindol-3-yl)butyl]-4-(2-carbamoyl-benzofuran-5-yl)-piperazine hydrochloride] as the compound, how does the “reduction of formalin-induced pain response” value [1] read?
**A.** The value was 79%.

**Q.** And the “time spent in social interaction” value (rats)?
**A.** The value was 144 s.

**Q.** And the “reduction of abdominal constrictions” value [2]?
**A.** Its value is 82%.

**Q.** What about the “inhibition of marble burying” value (mice) of the same compound?
**A.** Its value is 92%.
